According to ChEMBL document CHEMBL5550146, “Design, synthesis, and biological evaluation of novel sesquiterpene lactone derivatives as PKM2 activators with potent anti-ulcerative colitis activities” (Eur J Med Chem, 2024):
Each block holds one molecule with its values, some of them ahead of it. Activity calls are given as the source filed them. No cut-off for these calls is given here.

Experiments:
T-cell = assay: Antiproliferative activity against concanavalin A-stimulated C57BL/6 mouse T cells measured after 48 hrs by CCK8 assay; type: functional, cell-based; settings: C57BL/6, T-cell
Pyruvate kinase PKM = Pyruvate kinase PKM (Homo sapiens, UniProt P14618); assay: Activation of recombinant human PKM2 incubated for 40 mins by pyruvate kinase assay
Chain of Pyruvate kinase PKM (P14618 whole entry): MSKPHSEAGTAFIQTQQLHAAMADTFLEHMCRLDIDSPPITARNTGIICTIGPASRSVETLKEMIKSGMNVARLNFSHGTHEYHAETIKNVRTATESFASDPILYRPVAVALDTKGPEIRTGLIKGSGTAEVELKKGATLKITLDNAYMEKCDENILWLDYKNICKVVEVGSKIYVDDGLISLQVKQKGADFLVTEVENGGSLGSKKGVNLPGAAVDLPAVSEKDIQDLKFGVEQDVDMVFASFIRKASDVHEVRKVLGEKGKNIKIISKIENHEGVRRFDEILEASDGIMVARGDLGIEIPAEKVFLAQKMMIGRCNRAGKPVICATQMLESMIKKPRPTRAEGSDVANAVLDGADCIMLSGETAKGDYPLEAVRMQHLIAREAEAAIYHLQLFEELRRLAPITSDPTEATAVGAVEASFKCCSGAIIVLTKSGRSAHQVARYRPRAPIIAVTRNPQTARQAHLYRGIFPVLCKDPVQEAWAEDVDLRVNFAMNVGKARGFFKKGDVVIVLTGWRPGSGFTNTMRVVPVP

Mus musculus = assay: Antiinflammatory activity in DSS-induced colitis female C57BL/6 mouse model assessed as reduction in shortening of colon length at 200 mg/kg, ip administered for 12 days with subsequent treatment of DSS for 9 days followed by drinking water for 3 days; type: functional, organism-based; settings: time 12.0 day

Structure (SMILES): C=C1C(=O)O[C@H]2[C@H]1CC/C(CNS(=O)(=O)c1ccccc1)=C\CC[C@@]1(C)O[C@@H]21
IC50 (T-cell): 1200 nM
AC50 (Pyruvate kinase PKM): 637 nM

Structure (SMILES): C=C1C(=O)O[C@H]2[C@H]1CC/C(C=O)=C\CC[C@@]1(C)O[C@@H]21
IC50 (T-cell): > 10000 nM

Structure (SMILES): C=C1C(=O)O[C@H]2[C@H]1CC/C(COC(=O)N1CCN(C)CC1)=C\CC[C@@]1(C)O[C@@H]21
IC50 (T-cell): 1040 nM
AC50 (Pyruvate kinase PKM): 567 nM

Structure (SMILES): COc1ccc(/C=C2/C(=O)O[C@H]3[C@H]2CC/C(C)=C/CC[C@@]2(C)O[C@@H]32)cc1
IC50 (T-cell): 4600 nM

Structure (SMILES): C=C1C(=O)O[C@H]2[C@H]1CC/C(CNS(=O)(=O)c1ccc(OC)cc1)=C\CC[C@@]1(C)O[C@@H]21
IC50 (T-cell): 1040 nM
AC50 (Pyruvate kinase PKM): 492 nM

Structure (SMILES): C=C1C(=O)O[C@H]2[C@H]1C[C@@H](F)/C(C)=C/CC[C@@]1(C)O[C@@H]21
IC50 (T-cell): 2370 nM
AC50 (Pyruvate kinase PKM): > 3000 nM

Structure (SMILES): C=C1C(=O)O[C@H]2[C@H]1C[C@@H](Br)/C(C)=C/CC[C@@]1(C)O[C@@H]21
IC50 (T-cell): 3840 nM

Structure (SMILES): C=C1C(=O)O[C@@H]2C3O[C@]3(C)CC/C=C(\C)CC[C@@H]12 (some centres undefined)
IC50 (T-cell): 1960 nM
AC50 (Pyruvate kinase PKM): 1060 nM

Structure (SMILES): Nc1ccc(O)c(C(=O)O)c1
Activity (Mus musculus): Active

Structure (SMILES): C=C1C(=O)O[C@H]2[C@H]1C[C@@H](O)/C(C)=C/CC[C@@]1(C)O[C@@H]21
IC50 (T-cell): 3470 nM

Structure (SMILES): C/C1=C\CC[C@@]2(C)O[C@H]2[C@H]2OC(=O)/C(=C/c3cccc4ccccc34)[C@@H]2CC1
IC50 (T-cell): 4530 nM

Structure (SMILES): C=C1C(=O)O[C@H]2[C@H]1CC/C(CNS(=O)(=O)c1ccc(F)cc1)=C\CC[C@@]1(C)O[C@@H]21
IC50 (T-cell): 1500 nM
AC50 (Pyruvate kinase PKM): 1230 nM

Structure (SMILES): C=C1C(=O)O[C@H]2[C@H]1CC/C(C(=O)O)=C\CC[C@@]1(C)O[C@@H]21
IC50 (T-cell): > 10000 nM

Structure (SMILES): C/C1=C\CC[C@@]2(C)O[C@H]2[C@H]2OC(=O)/C(=C/c3ccccc3)[C@@H]2CC1
IC50 (T-cell): 4270 nM

Structure (SMILES): C=C1C(=O)O[C@H]2[C@H]1CC/C(CNS(=O)(=O)C(F)(F)F)=C\CC[C@@]1(C)O[C@@H]21
IC50 (T-cell): 2980 nM
AC50 (Pyruvate kinase PKM): > 3000 nM

Structure (SMILES): C=C1C(=O)O[C@H]2[C@H]1CC/C(CNS(=O)(=O)C1CC1)=C\CC[C@@]1(C)O[C@@H]21
IC50 (T-cell): 2650 nM
AC50 (Pyruvate kinase PKM): > 3000 nM

Structure (SMILES): C=C1C(=O)O[C@H]2[C@H]1CC/C(CNS(=O)(=O)c1ccc([N+](=O)[O-])cc1)=C\CC[C@@]1(C)O[C@@H]21
IC50 (T-cell): 1320 nM
AC50 (Pyruvate kinase PKM): 966 nM

Further lines, with some results ahead:

AC50 (Pyruvate kinase PKM): 736 nM
Structure (SMILES): C=C1C(=O)O[C@H]2[C@H]1CC/C(COC(=O)N1CCCC1)=C\CC[C@@]1(C)O[C@@H]21
IC50 (T-cell): 1780 nM

AC50 (Pyruvate kinase PKM): 867 nM
Structure (SMILES): C=C1C(=O)O[C@H]2[C@H]1CC/C(CO)=C\CC[C@@]1(C)O[C@@H]21
IC50 (T-cell): 1590 nM

AC50 (Pyruvate kinase PKM): 812 nM
Structure (SMILES): C=C1C(=O)O[C@H]2[C@H]1CC/C(COC(=O)NCCC)=C\CC[C@@]1(C)O[C@@H]21
IC50 (T-cell): 1270 nM

AC50 (Pyruvate kinase PKM): > 3000 nM
Structure (SMILES): C=C1C(=O)O[C@H]2[C@H]1CC/C(COC(=O)NC)=C\CC[C@@]1(C)O[C@@H]21
IC50 (T-cell): 2600 nM

AC50 (Pyruvate kinase PKM): > 3000 nM
Structure (SMILES): C=C1C(=O)O[C@H]2[C@H]1CC/C(COC)=C\CC[C@@]1(C)O[C@@H]21
IC50 (T-cell): 2330 nM

AC50 (Pyruvate kinase PKM): > 3000 nM
Structure (SMILES): C=C1C(=O)O[C@H]2[C@H]1CC/C(COC(=O)N1CCN(CC)CC1)=C\CC[C@@]1(C)O[C@@H]21
IC50 (T-cell): 2370 nM

AC50 (Pyruvate kinase PKM): > 3000 nM
Structure (SMILES): C=C1C(=O)O[C@H]2[C@H]1CC/C(CNS(C)(=O)=O)=C\CC[C@@]1(C)O[C@@H]21
IC50 (T-cell): 3150 nM

AC50 (Pyruvate kinase PKM): > 3000 nM
Structure (SMILES): C=C1C(=O)O[C@H]2[C@H]1CC/C(COC(=O)NOC)=C\CC[C@@]1(C)O[C@@H]21
IC50 (T-cell): 2340 nM

AC50 (Pyruvate kinase PKM): 1570 nM
Structure (SMILES): C=C1C(=O)O[C@H]2[C@H]1CC/C(COC(=O)N(C)C)=C\CC[C@@]1(C)O[C@@H]21
IC50 (T-cell): 1630 nM

AC50 (Pyruvate kinase PKM): 2220 nM
Structure (SMILES): C=C1C(=O)O[C@H]2[C@H]1CC/C(COC(=O)NCC)=C\CC[C@@]1(C)O[C@@H]21
IC50 (T-cell): 1700 nM

AC50 (Pyruvate kinase PKM): > 3000 nM
Structure (SMILES): C=C1C(=O)O[C@H]2[C@H]1CC/C(COC(=O)NCCN(C)C)=C\CC[C@@]1(C)O[C@@H]21
IC50 (T-cell): 2880 nM

AC50 (Pyruvate kinase PKM): > 3000 nM
Structure (SMILES): C=C1C(=O)O[C@H]2[C@H]1CC/C(COC(=O)NCCN(CC)CC)=C\CC[C@@]1(C)O[C@@H]21
IC50 (T-cell): 2520 nM

AC50 (Pyruvate kinase PKM): 660 nM
Structure (SMILES): C=C1C(=O)O[C@H]2[C@H]1CC/C(COC(=O)N(CCC)CCC)=C\CC[C@@]1(C)O[C@@H]21
IC50 (T-cell): 1180 nM

AC50 (Pyruvate kinase PKM): > 3000 nM
Structure (SMILES): C=C1C(=O)O[C@H]2[C@H]1CC/C(CNS(=O)(=O)CC)=C\CC[C@@]1(C)O[C@@H]21
IC50 (T-cell): 2970 nM
